{
  "source": "patent US8999389B2",
  "about": "“Bioresorbable controlled-release composition” (priority 2006, dated 2015)",
  "assay": "Intravenous bolus dosing of 2-hydroxyflutamide in dogs, plasma concentration",
  "format": "in vivo, Labrador dogs",
  "settings": "single intravenous bolus 25 mg",
  "procedure": "First, an animal study was performed with 4 sexually mature Labrador dogs, aged 1 year, under approval by the Animal Ethics Committee of University of Gothenburg.\nThe male dogs (Labrador) were first given an intravenous single bolus dose of 2-hydroxyflutamide or 25 mg (10 ml solution) per animal during 30 seconds. The composition of the intravenous solution was sterile saline 54%, sterile polyethyleneglycol 400, 46% and 6% ethanol (95%).\nAfter injection into vena jugularis, blood samples were taken at predetermined time points during 10 hours.",
  "data": [
    {"smiles": "CC(C)(O)C(=O)Nc1ccc([N+](=O)[O-])c(C(F)(F)F)c1", "note": "[2-hydroxyflutamide]", "values": [
      {"measurement": "time after which plasma concentration was below the detection limit", "result": "about 10 hrs"}
    ]}
  ]
}
